What was measured:
SK-MEL-5 = experiment: cells; type: cell-based; conditions: Homo sapiens; SK-MEL-5; 10 μM; read-out: growth inhibition % (GI%)
HCC-2998 = experiment: cells; type: cell-based; conditions: Homo sapiens; HCC-2998; 10 μM; read-out: growth inhibition % (GI%)
PC-3 = experiment: cells; type: cell-based; conditions: Homo sapiens; PC-3; 10 μM; read-out: growth inhibition % (GI%)
TK-10 = experiment: cells; type: cell-based; conditions: Homo sapiens; TK-10; 10 μM; read-out: growth inhibition % (GI%)
786-0 = experiment: cells; type: cell-based; conditions: Homo sapiens; 786-0; 10 μM; read-out: growth inhibition % (GI%)
SN12C = experiment: cells; type: cell-based; conditions: Homo sapiens, 10 μM, read-out: growth inhibition % (GI%)
IGROV1 = experiment: cells; type: cell-based; conditions: Homo sapiens, IGROV-1; IGROV1; 10 μM; read-out: growth inhibition % (GI%)
ACHN = experiment: cells; type: cell-based; conditions: Homo sapiens, 10 μM, read-out: growth inhibition % (GI%)
OVCAR-4 = experiment: cells; type: cell-based; conditions: Homo sapiens; OVCAR-4; 10 μM; read-out: growth inhibition % (GI%)
SK-OV-3 = experiment: cells; type: cell-based; conditions: Homo sapiens; SK-OV-3; 10 μM; read-out: growth inhibition % (GI%)
MDA-MB-435 = experiment: cells; type: cell-based; conditions: Homo sapiens; MDA-MB-435; 10 μM; read-out: growth inhibition % (GI%)
SNB-19 = experiment: cells; type: cell-based; conditions: Homo sapiens; SNB-19; 10 μM; read-out: growth inhibition % (GI%)
HCT-116 = experiment: cells; type: cell-based; conditions: Homo sapiens; HCT-116; 10 μM; read-out: growth inhibition % (GI%)
RPMI-8226 = experiment: cells; type: cell-based; conditions: Homo sapiens; RPMI-8226; 10 μM; read-out: growth inhibition % (GI%)
NCI-H522 = experiment: cells; type: cell-based; conditions: Homo sapiens; NCI-H522; 10 μM; read-out: growth inhibition % (GI%)
OVCAR-5 = experiment: cells; type: cell-based; conditions: Homo sapiens; OVCAR-5; 10 μM; read-out: growth inhibition % (GI%)
NCI-H226 = experiment: cells; type: cell-based; conditions: Homo sapiens; NCI-H226; 10 μM; read-out: growth inhibition % (GI%)
T-47D = experiment: cells; type: cell-based; conditions: Homo sapiens, T47D; T-47D; 10 μM; read-out: growth inhibition % (GI%)
K-562 = experiment: cells; type: cell-based; conditions: Homo sapiens, K562; K-562; 10 μM; read-out: growth inhibition % (GI%)
[1] = tested on: panel of 60 tumour cell lines; experiment: NCI 60 cell line antiproliferative screening (SRB), whole panel or subpanels (means, ranges, words); type: cell-based, human; conditions: for antiproliferative activity against all tested cell lines: 10 μM single dose; for inhibition at 10 µM: Homo sapiens, 60 cell, mean over the cell line panel, read-out: Mean growth inhibition % (mean GI%)
SK-MEL-2 = experiment: cells; type: cell-based; conditions: Homo sapiens; SK-MEL-2; 10 μM; read-out: growth inhibition % (GI%)
MDA-MB-231/ATCC = experiment: NCI 60 cell line antiproliferative screening (SRB), Breast cancer; type: cell-based; conditions: Homo sapiens, MDA-MB-231, read-out: growth inhibition % (GI%)
HOP-92 = experiment: cells; type: cell-based; conditions: Homo sapiens; HOP-92; 10 μM; read-out: growth inhibition % (GI%)
CCRF-CEM = experiment: cells; type: cell-based; conditions: Homo sapiens, 10 μM, read-out: growth inhibition % (GI%)
BT-549 = experiment: cells; type: cell-based; conditions: Homo sapiens; BT-549; 10 μM; read-out: growth inhibition % (GI%)
SNB-75 = experiment: cells; type: cell-based; conditions: Homo sapiens; SNB-75; 10 μM; read-out: growth inhibition % (GI%)
SW-620 = experiment: cells; type: cell-based; conditions: Homo sapiens; SW-620; 10 μM; read-out: growth inhibition % (GI%)
MDA-MB-468 = experiment: NCI 60 cell line antiproliferative screening (SRB), Breast cancer; conditions: Homo sapiens, MDA-MB-468, read-out: growth inhibition % (GI%)
HT29 = experiment: cells; type: cell-based; conditions: Homo sapiens, HT-29; HT29; 10 μM; read-out: growth inhibition % (GI%)
SF-539 = experiment: cells; type: cell-based; conditions: Homo sapiens; SF-539; 10 μM; read-out: growth inhibition % (GI%)
SR = experiment: cells; type: cell-based; conditions: Homo sapiens, 10 μM, read-out: growth inhibition % (GI%)
NCI-H460 = experiment: cells; type: cell-based; conditions: Homo sapiens; NCI-H460; 10 μM; read-out: growth inhibition % (GI%)
UACC-62 = experiment: cells; type: cell-based; conditions: Homo sapiens; UACC-62; 10 μM; read-out: growth inhibition % (GI%)
HOP-62 = experiment: cells; type: cell-based; conditions: Homo sapiens; HOP-62; 10 μM; read-out: growth inhibition % (GI%)
NCI-H322M = experiment: cells; type: cell-based; conditions: Homo sapiens, 10 μM, read-out: growth inhibition % (GI%)
OVCAR-3 = experiment: NCI 60 cell line antiproliferative screening (SRB), Ovarian cancer; conditions: Homo sapiens, OVCAR-3, read-out: growth inhibition % (GI%)
COLO-205 = experiment: cells; type: cell-based; conditions: Homo sapiens; COLO-205; 10 μM; read-out: growth inhibition % (GI%)
EKVX = experiment: cells; type: cell-based; conditions: Homo sapiens, 10 μM, read-out: growth inhibition % (GI%)
SF-268 = experiment: cells; type: cell-based; conditions: Homo sapiens; SF-268; 10 μM; read-out: growth inhibition % (GI%)
A498 = experiment: cells; type: cell-based; conditions: Homo sapiens; A498; 10 μM; read-out: growth inhibition % (GI%)
LOX IMIV = experiment: cells; type: cell-based; conditions: Homo sapiens, 60 cell; LOX IMIV; 10 μM; read-out: growth inhibition % (GI%)
OVCAR-8 = experiment: cells; type: cell-based; conditions: Homo sapiens; OVCAR-8; 10 μM; read-out: growth inhibition % (GI%)
SK-MEL-28 = experiment: cells; type: cell-based; conditions: Homo sapiens; SK-MEL-28; 10 μM; read-out: growth inhibition % (GI%)
UO-31 = experiment: cells; type: cell-based; conditions: Homo sapiens; UO-31; 10 μM; read-out: growth inhibition % (GI%)
NCI/ADR-RES = experiment: cells; type: cell-based; conditions: Homo sapiens, 10 μM, read-out: growth inhibition % (GI%)
UACC-257 = experiment: cells; type: cell-based; conditions: Homo sapiens; UACC-257; 10 μM; read-out: growth inhibition % (GI%)

O=C(CSc1nc2ccccc2c(=O)n1-c1ccc(Cl)cc1)NN=Cc1ccc(N2CCOCC2)cc1 [6k, 2-((3–(4-chlorophenyl)-4-oxo-3,4-dihydroquinazolin-2-yl)thio)-N'-(4-morpholinobenzylidene) acetohydrazide]
< 0%: inhibition at 10 µM [1]
did not show activity: antiproliferative activity against all tested cell lines [1]
< 15%: inhibition at 10 µM (SK-MEL-5) | inhibition at 10 µM (HCC-2998) | inhibition at 10 µM (PC-3) | inhibition at 10 µM (TK-10) | inhibition at 10 µM (786-0) | inhibition at 10 µM (SN12C) | inhibition at 10 µM (IGROV1) | inhibition at 10 µM (ACHN) | inhibition at 10 µM (OVCAR-4) | inhibition at 10 µM (SK-OV-3) | inhibition at 10 µM (MDA-MB-435) | inhibition at 10 µM (SNB-19) | inhibition at 10 µM (HCT-116) | inhibition at 10 µM (RPMI-8226) | inhibition at 10 µM (NCI-H522) | inhibition at 10 µM (OVCAR-5) | inhibition at 10 µM (NCI-H226) | inhibition at 10 µM (T-47D) | inhibition at 10 µM (K-562) | inhibition at 10 µM (SK-MEL-2) | inhibition at 10 µM (MDA-MB-231/ATCC) | inhibition at 10 µM (HOP-92) | inhibition at 10 µM (CCRF-CEM) | inhibition at 10 µM (BT-549) | inhibition at 10 µM (SNB-75) | inhibition at 10 µM (SW-620) | inhibition at 10 µM (MDA-MB-468) | inhibition at 10 µM (HT29) | inhibition at 10 µM (SF-539) | inhibition at 10 µM (SR) | inhibition at 10 µM (NCI-H460) | inhibition at 10 µM (UACC-62) | inhibition at 10 µM (HOP-62) | inhibition at 10 µM (NCI-H322M) | inhibition at 10 µM (OVCAR-3) | inhibition at 10 µM (COLO-205) | inhibition at 10 µM (EKVX) | inhibition at 10 µM (SF-268) | inhibition at 10 µM (A498) | inhibition at 10 µM (LOX IMIV) | inhibition at 10 µM (OVCAR-8) | inhibition at 10 µM (SK-MEL-28) | inhibition at 10 µM (UO-31) | inhibition at 10 µM (NCI/ADR-RES) | inhibition at 10 µM (UACC-257)

O=C(CSc1nc2ccccc2c(=O)n1-c1ccccc1)NN=Cc1ccc(N2CCOCC2)cc1 [6h, N'-(4-morpholinobenzylidene)-2-((4-oxo-3-phenyl-3,4-dihydroquinazolin-2-yl)thio)acetohydrazide]
< 15%: inhibition at 10 µM (SK-MEL-5) | inhibition at 10 µM (HCC-2998) | inhibition at 10 µM (PC-3) | inhibition at 10 µM (TK-10) | inhibition at 10 µM (786-0) | inhibition at 10 µM (SN12C) | inhibition at 10 µM (IGROV1) | inhibition at 10 µM (ACHN) | inhibition at 10 µM (OVCAR-4) | inhibition at 10 µM (SK-OV-3) | inhibition at 10 µM (MDA-MB-435) | inhibition at 10 µM (SNB-19) | inhibition at 10 µM (HCT-116) | inhibition at 10 µM (RPMI-8226) | inhibition at 10 µM (NCI-H522) | inhibition at 10 µM (OVCAR-5) | inhibition at 10 µM (NCI-H226) | inhibition at 10 µM (T-47D) | inhibition at 10 µM (K-562) | inhibition at 10 µM (SK-MEL-2) | inhibition at 10 µM (MDA-MB-231/ATCC) | inhibition at 10 µM (CCRF-CEM) | inhibition at 10 µM (BT-549) | inhibition at 10 µM (SNB-75) | inhibition at 10 µM (SW-620) | inhibition at 10 µM (MDA-MB-468) | inhibition at 10 µM (HT29) | inhibition at 10 µM (SF-539) | inhibition at 10 µM (SR) | inhibition at 10 µM (NCI-H460) | inhibition at 10 µM (UACC-62) | inhibition at 10 µM (HOP-62) | inhibition at 10 µM (NCI-H322M) | inhibition at 10 µM (OVCAR-3) | inhibition at 10 µM (COLO-205) | inhibition at 10 µM (EKVX) | inhibition at 10 µM (SF-268) | inhibition at 10 µM (LOX IMIV) | inhibition at 10 µM (OVCAR-8) | inhibition at 10 µM (SK-MEL-28) | inhibition at 10 µM (UO-31) | inhibition at 10 µM (NCI/ADR-RES) | inhibition at 10 µM (UACC-257)
< 0%: inhibition at 10 µM [1]
15.8%: inhibition at 10 µM (A498)
did not show activity: antiproliferative activity against all tested cell lines [1]
18.7%: inhibition at 10 µM (HOP-92)

— article PMC9518264, “Design and synthesis of novel quinazolinone-based derivatives as EGFR inhibitors with antitumor activity” (Journal of Enzyme Inhibition and Medicinal Chemistry, 2022)
